In the NIST ThermoML archive (doi:10.1021/je060271a):
Numbers after ± are expanded uncertainties.

Settings: 283.15 K, Liquid, Vibrating tube method

CCCCCCCC(=O)OCC(COC(=O)CCCCCCC)(COC(=O)CCCCCCC)COC(=O)CCCCCCC [pentaerythritol tetraoctanoate]
Settings | mass density [kg/m3]
7440.8 kPa | 974.4 ± 1.2
7459 kPa | 974.5 ± 1.2
7477.1 kPa | 974.5 ± 1.2
7498.5 kPa | 974.5 ± 1.2
7516.3 kPa | 974.6 ± 1.2
7534.1 kPa | 974.5 ± 1.2
7555.6 kPa | 974.6 ± 1.2
7574.3 kPa | 974.6 ± 1.2
7592.6 kPa | 974.6 ± 1.2
7614.9 kPa | 974.6 ± 1.2
7633.7 kPa | 974.6 ± 1.2
7652.5 kPa | 974.6 ± 1.2
7671.5 kPa | 974.7 ± 1.2
7693.9 kPa | 974.6 ± 1.2
7713.6 kPa | 974.7 ± 1.2
7732.4 kPa | 974.7 ± 1.2
7751.9 kPa | 974.7 ± 1.2
7774.9 kPa | 974.8 ± 1.2
7794.2 kPa | 974.7 ± 1.2
7813.7 kPa | 974.8 ± 1.2
7837.5 kPa | 974.7 ± 1.2
7857 kPa | 974.8 ± 1.2
7877.2 kPa | 974.8 ± 1.2
7897.6 kPa | 974.8 ± 1.2
7917.4 kPa | 974.8 ± 1.2
7942.4 kPa | 974.8 ± 1.2
7963.7 kPa | 974.8 ± 1.2
7984.1 kPa | 974.8 ± 1.2
8005.2 kPa | 974.9 ± 1.2
8025.4 kPa | 974.9 ± 1.2
8049.7 kPa | 974.8 ± 1.2
8070.2 kPa | 974.9 ± 1.2
8092.5 kPa | 975.1 ± 1.2
8117.1 kPa | 974.9 ± 1.2
8138 kPa | 974.8 ± 1.2
8159.8 kPa | 974.9 ± 1.2
8184.3 kPa | 974.9 ± 1.2
8205.1 kPa | 975 ± 1.2
8227.9 kPa | 974.9 ± 1.2
8252.3 kPa | 975 ± 1.2
8274.2 kPa | 975 ± 1.2
8300.2 kPa | 975.1 ± 1.2
8322.1 kPa | 975.1 ± 1.2
8344.2 kPa | 975.1 ± 1.2
8367 kPa | 975.1 ± 1.2
8393.5 kPa | 975 ± 1.2
8415.8 kPa | 975.1 ± 1.2
8438.6 kPa | 975 ± 1.2
8465.5 kPa | 975.1 ± 1.2
8487.9 kPa | 975.1 ± 1.2
8516.4 kPa | 975.2 ± 1.2
8539.8 kPa | 975.1 ± 1.2
8563.6 kPa | 975.1 ± 1.2
8586.9 kPa | 975.2 ± 1.2
8615 kPa | 975.2 ± 1.2
8638.6 kPa | 975.2 ± 1.2
8666.6 kPa | 975.3 ± 1.2
8690.7 kPa | 975.3 ± 1.2
8714.3 kPa | 975.1 ± 1.2
8744.3 kPa | 975.2 ± 1.2
8768.6 kPa | 975.3 ± 1.2
8793.6 kPa | 975.4 ± 1.2
8822.8 kPa | 975.4 ± 1.2
8847.1 kPa | 975.3 ± 1.2
8872.8 kPa | 975.3 ± 1.2
8898.8 kPa | 975.4 ± 1.2
8929.2 kPa | 975.3 ± 1.2
8953.6 kPa | 975.4 ± 1.2
8985 kPa | 975.4 ± 1.2
9011.4 kPa | 975.4 ± 1.2
9037.2 kPa | 975.4 ± 1.2
9063.1 kPa | 975.5 ± 1.2
9095 kPa | 975.3 ± 1.2
9120.9 kPa | 975.4 ± 1.2
9152 kPa | 975.5 ± 1.2
9179.6 kPa | 975.5 ± 1.2
9206.9 kPa | 975.5 ± 1.2
9238.7 kPa | 975.5 ± 1.6
9266.5 kPa | 975.5 ± 1.2
9295.1 kPa | 975.6 ± 1.2
9323 kPa | 975.5 ± 1.2
9356.5 kPa | 975.6 ± 1.2
9383.9 kPa | 975.2 ± 1.2
9416.6 kPa | 975.6 ± 1.2
9445.6 kPa | 975.6 ± 1.2
9474.8 kPa | 975.6 ± 1.2
9509.1 kPa | 975.6 ± 1.2
9537.9 kPa | 975.7 ± 1.2
9567.4 kPa | 975.8 ± 1.2
9602.7 kPa | 975.7 ± 1.2
9633 kPa | 975.8 ± 1.2
9662.7 kPa | 975.7 ± 1.2
9692.8 kPa | 975.8 ± 1.2
9730.2 kPa | 975.8 ± 1.3
9760.9 kPa | 975.8 ± 1.2
9797 kPa | 975.9 ± 1.2
9827.4 kPa | 975.9 ± 1.2
9859.1 kPa | 975.8 ± 1.2
9890.1 kPa | 975.9 ± 1.2
9927.8 kPa | 975.9 ± 1.2
9959.5 kPa | 976 ± 1.2
9991.2 kPa | 976 ± 1.2
10030 kPa | 975.8 ± 1.2
10063 kPa | 975.9 ± 1.2
10103 kPa | 976 ± 1.2
10135 kPa | 975.9 ± 1.2
10169 kPa | 976 ± 1.2
10203 kPa | 976.1 ± 1.2
10243 kPa | 976.1 ± 1.2
10276 kPa | 976 ± 1.2
10311 kPa | 976.1 ± 1.2
10352 kPa | 976 ± 1.2
10387 kPa | 976.1 ± 1.2
10421 kPa | 976.1 ± 1.2
10464 kPa | 976.2 ± 1.2
10500 kPa | 976.2 ± 1.2
10539 kPa | 976.3 ± 1.2
10575 kPa | 976.4 ± 1.2
10612 kPa | 976.3 ± 1.2
10655 kPa | 976.1 ± 1.2
10692 kPa | 976.4 ± 1.2
10736 kPa | 976.3 ± 1.2
10773 kPa | 976.4 ± 1.2
10813 kPa | 976.3 ± 1.2
10851 kPa | 976.4 ± 1.2
10890 kPa | 976.5 ± 1.2
10936 kPa | 976.5 ± 1.2
10974 kPa | 976.5 ± 1.2
11022 kPa | 976.5 ± 1.2
11063 kPa | 976.4 ± 1.2
11103 kPa | 976.5 ± 1.2
11143 kPa | 976.6 ± 1.2
11183 kPa | 976.6 ± 1.2
11232 kPa | 976.8 ± 1.2
11272 kPa | 976.6 ± 1.2
11322 kPa | 976.6 ± 1.2
11363 kPa | 976.6 ± 1.2
11404 kPa | 976.6 ± 1.2
11456 kPa | 976.9 ± 1.2
11499 kPa | 976.7 ± 1.2
11542 kPa | 976.8 ± 1.2
11594 kPa | 976.8 ± 1.2
11639 kPa | 976.8 ± 1.2
11683 kPa | 976.8 ± 1.2
11736 kPa | 976.9 ± 1.2
11780 kPa | 976.8 ± 1.2
11826 kPa | 977 ± 1.2
11881 kPa | 976.9 ± 1.2
